From patent US20150343038A1, “METHOD AND COMPOSITION FOR TREATING SPASTICITY” (THE REGENTS OF THE UNIVERSITY OF CALIFORNIA, priority 2013, published 2015)
Entries after “also recorded” stand apart in the source; their conditions may differ. Like-named read-outs stand apart in the source and are kept apart here.

How the values were obtained:
[1] = tested on: rats with ischemic spasticity; type: in vivo, rat
[2] = tested on: in vitro cultured neurons; conditions: cited from earlier work
[3] = tested on: rats with ischemic spasticity; conditions: intrathecal baclofen (1 μg elsewhere in the source); previous studies, same spinal ischemia-induced spasticity model; cited from earlier work
spasticity = conditions: cited from earlier work; for anti-spasticity effect in clinical studies: systemic (tiagabine: clinically-acceptable doses) or spinal administration
spastic patients = conditions: intrathecal treatment; cited from earlier work
[4] = tested on: rats with ischemic spasticity; assay: Hoffmann reflex (H-wave amplitude) during high frequency (20 Hz) stimulation; type: in vivo, rat
Method: H-reflex was recorded as previously described. Under ketamine anesthesia (100 mg/kg/hr, i.m.) the right hind limb of the animal was secured and a pair of stimulating needle electrodes was transcutaneously inserted into the surroundings of the tibial nerve. For recording, a pair of silver needle electrodes was placed into the interosseous muscles between the fourth and the fifth or the first and the second metatarsal right foot muscles. The tibial nerve was stimulated using square pulses with increasing stimulus intensity (0.1-10 mA in 0.5 mA increments, 0.1 Hz, 0.2 ms; WPI; Isostim A320) and responses were recorded with an A/C-coupled differential amplifier (Model DB4; DPI, Sarasota, Fla.). After the M-max and H-max responses were identified the intensity of stimulus which evoked H-max amplitudes were used in subsequent high frequency (20 Hz) stimulation experiment. In HIV1-CMVGAD65-GFP (n=6) or HIV1-CMV-GFP (n=6) lentivirus-injected animals a high frequency stimulation was performed in 5 min intervals for up to 90 min after tiagabine (40 mg/kg, i.p.) injection. Changes in H-wave amplitude were then compared between both lentivirus-injected groups.

[5] = tested on: lumbar gray matter extracellular GABA; assay: Spinal cord microdialysis, extracellular GABA by HPLC; type: in vivo, rat; conditions: tiagabine 40 mg/kg i.p., at 20-40 min
Method: Spinal cord microdialysis was performed in naive (n=6), spastic-non treated (n=6), spastic HIV1-CMV-GFP lentivirus-injected (n=6) and spastic HIV1-CMV-GAD65-GFP (n=6) lentivirus-injected animals. Rats were anesthetized with 2% isoflurane, previous laminectomy site (in lentivirus injected animals) re-exposed and concentric microdialysis probe (A-2-8-02; cut off: MW 50,000; EICOM, Japan) placed into central gray matter between L3-L6 spinal cord segments. Microdialysis fiber was perfused with artificial CSF at 2 μl/min and samples collected on dry ice. After 120 min washout samples were collected in 20 min intervals before and after tiagabine (40 mg/kg, i.p.) injections and analyzed for GABA using HPLC (HTEC-500; EICOM).

[6] = tested on: upper extremity motor function; assay: Side effects / upper extremity motor function in treated spastic rats; type: in vivo, rat
[7] = human patients; cited from earlier work
[8] = rats; cited from earlier work
brain extracellular GABA = conditions: after systemic administration of 11.5-21 mg/kg; cited from earlier work

## NCCCC(=O)O [GABA, gamma-aminobutryic acid]
[1]; GABA 1 mg intrathecal alone, measured for 60 min
  anti-spasticity effect: No significant anti-spasticity effect
[2]
  concentrations required to exert receptor-mediated effect: 1 to 2 µmol

## NCC(CC(=O)O)c1ccc(Cl)cc1 (stereo not shown) [baclofen]
[3]
  anti-spasticity effect: potent anti-spasticity effect; also recorded: previously reported anti-spasticity effect
spasticity
  anti-spasticity effect in clinical studies: most potent anti-spasticity pharmacological treatment
spasticity; systemic or spinally-administered
  major side effects limiting chronic use: general sedation and progressive tolerance development
Spastic patients
  H-reflex activity: significant suppression of H-reflex activity

## Cc1ccsc1C(=CCCN1CCC[C@@H](C(=O)O)C1)c1sccc1C [tiagabine]
[1]; HIV1-CMV-GAD65-GFP-injected spastic rats
  time of peak anti-spasticity effect after tiagabine administration: 25 min
[1]; dose response 1, 4, 10, 20, 40 mg/kg, at 15-25 min after injection, HIV1-CMV-GAD65-GFP-injected spastic rats
  tiagabine doses providing significant (p<0.01) anti-spasticity effect: ≥ 4 mg/kg
[1]; systemic tiagabine in spastic rats injected spinally (L2-L5) with GAD65-encoding lentivirus (HIV1-CMV-GAD65-GFP)
  anti-spasticity effect: potent, dose-dependent reduction in spasticity; also recorded: potent and tiagabine-dose-dependent alleviation of spasticity; also recorded: potent and significant anti-spasticity effect
[1]; tiagabine 40 mg/kg i.p. alone (monotherapy)
  anti-spasticity effect: without anti-spasticity effect
[1]; tiagabine 40 mg/kg i.p. followed 15 min later by intrathecal GABA 1 mg
  anti-spasticity effect: potent and highly significant anti-spasticity effect
[1]; tiagabine 40 mg/kg i.p. in spastic rats injected spinally with control HIV1-CMV-GFP lentivirus
  anti-spasticity effect: no antispasicity effect; also recorded: without effect
[4]; tiagabine 40 mg/kg i.p., HIV1-CMV-GAD65-GFP-injected spastic rats, ketamine-sedated
  change in H-wave amplitude: significant (p<0.05) reduction
[4]; tiagabine 40 mg/kg i.p., control HIV1-CMV-GFP-injected spastic rats, up to 90 min, ketamine-sedated
  change in H-reflex amplitudes: no change
[4]; {}
  H-wave amplitude returned back to baseline by: ≤ 65 min
  time window of significant H-wave amplitude reduction after tiagabine injection: 20 to 45 min
[5]; HIV1-CMV-GAD65-GFP lentivirus-injected spastic animals
  spinal extracellular GABA concentration, change after tiagabine: significant (p<0.05) increase
[5]; naive animals
  spinal extracellular GABA concentration, change after tiagabine: significant (p<0.05) increase
[6]; after tiagabine in spastic rats with lumbar GAD65 lentivirus injection
  effect on upper limb motor function: No detectable effect
[6]; either treatment alone (GAD65-LVs injection only or tiagabine only)
  side effect: nor had any detectable side effect
[6]; tiagabine 40 mg/kg i.p. + intrathecal GABA 1 mg
  effect on upper extremity motor function: No suppressive effect
[7]
  serum half-life: 5 to 8 h
[8]
  serum half-life: 0.917 h
Brain extracellular GABA
  increase in brain levels of extracellular GABA: 2-3 fold
spasticity
  anti-spasticity effect in clinical studies: only a weak or no anti-spasticity effect
